Experimental data taken from patent US11565231B2, “Substrates, peptide arrays, and methods” (Vibrant Holdings, LLC, priority 2012, dated 2023).

How the values were obtained:
[1] = tested on: antibodies of clinically proven celiac positive samples; experiment: Immunological binding assay on Periphilin-1 overlapping peptide array; conditions: Periphilin-1 spanned as overlapping 12 amino acid peptides, signals significant when exceeding background (400) by a factor of 50
Protocol: Immunological binding assays were performed on an array produced using the materials and methods described in the Examples above. The samples that were used to run the assays included clinically proven celiac positive samples.
The immunoactive regions of Periphilin-1 were determined. With reference to FIG. 17, the microarray substrate including the Periphilin-1 sequence split into 12 amino acid length peptide sequences is shown. […] Determination of background noise, background subtraction, and identification of signals that exceed background noise routine and well within the level of ordinary skill in the microarray binding arts. In this example, the mean background signal intensity was estimated to be 400 and signals were determined to be significant when they exceeded background by a factor of 50.

[2] = tested on: IgA from a celiac positive sample; experiment: Antibody assay (B peptides) on peptide array, IgA binding
Protocol: A peptide array comprising peptide fragment sequences synthesized on the surface of the array was generated according to the methods described above. The peptide array was developed to test all 12 mer sequences from alpha-gliadin, including sequences where glutamine was substituted with glutamate, as described above (see, e.g., FIGS. 15 and 16). A reduction reaction was performed to remove the disulfide bonds that exist between cysteine residues. This reaction was not performed when epitopes involving cyclic peptides based on cysteine bonds are needed. Dithiothreitol was prepared in a concentration of 0.1 g per 20 mL PBS-Tween (PBST). The peptide microarray (herein referred to as the peptide chip) was immersed in the DTT solution and placed in a nitrogen atmosphere at a pressure of 40 Pa at room temperature for 1 hour. […]
The peptide array was then analyzed to detect antibody/peptide complexes. […]
A set of 12-mer sequences generating weakly or strongly positive binding signals to celiac positive samples was compiled (see, e.g., Table A in Appendix A of U.S. Provisional Application No. 61/761,347, incorporated herein by reference). Using a computer programmed to undertake sequence analysis, subsequences present within this set of 12-mer sequences were determined using a series of sliding windows having a minimum length of 3 amino acids and maximum length of 11 amino acids. […]

Substance | subsequence identified for antibody binding [1] | immune dominant subsequence (epitope) for antibody response amongst celiac positive subjects ([2]; alpha-gliadin 12-mer array incl. deamidated sequences, celiac positive samples) | sample binding hits ([2]; celiac-positive serum sample, IgA binding, FIG. 18, Row QPE, Column QPF)
PQQPEQII | key subsequence for antibody binding | – | –
QPEQPF [QPE-QPF] | – | key immune dominant subsequence | 91.78%
